Experimental data published in ChEMBL document CHEMBL4196027, “Structure-based discovery of cytotoxic dimeric tetrahydroxanthones as potential topoisomerase I inhibitors from a marine-derived fungus” (Eur J Med Chem, 2018).

Legend:
[1] = tested on: HL-60; test: Cytotoxicity against human HL60 cells assessed as reduction in cell proliferation after 48 hrs by MTT assay; format: functional, cell-based; details: Homo sapiens, HL-60, 48 h
[2] = tested on: K562; test: Cytotoxicity against human K562 cells assessed as reduction in cell proliferation after 48 hrs by MTT assay; format: functional, cell-based; details: Homo sapiens, K562, 48 h
[3] = tested on: A549; test: Cytotoxicity against human A549 cells assessed as reduction in cell proliferation after 48 hrs by MTT assay; format: functional, cell-based; details: Homo sapiens, A549, 48 h
[4] = tested on: NCI-H1975; test: Cytotoxicity against human NCI-H1975 cells assessed as reduction in cell proliferation after 48 hrs by MTT assay; format: functional, cell-based; details: Homo sapiens, NCI-H1975, 48 h
[5] = tested on: MGC-803; test: Cytotoxicity against human MGC803 cells assessed as reduction in cell proliferation after 48 hrs by MTT assay; format: functional, cell-based; details: Homo sapiens, MGC-803, 48 h
[6] = tested on: HEK293; test: Cytotoxicity against HEK293 cells assessed as reduction in cell proliferation after 48 hrs by MTT assay; format: cell-based; details: Homo sapiens, HEK293, 48 h
[7] = Cytotoxicity against human HO8910 cells assessed as reduction in cell proliferation after 48 hrs by MTT assay; format: functional, cell-based; details: Homo sapiens, HO-8910, 48 h
[8] = tested on: HCT-116; test: Cytotoxicity against human HCT116 cells assessed as reduction in cell proliferation after 48 hrs by MTT assay; format: functional, cell-based; details: Homo sapiens, HCT-116, 48 h
[9] = tested on: MGC-803; test: Cell cycle arrest in human MGC803 cells assessed as accumulation at G0/G1 phase at 6.25 uM after 24 hrs by propidium iodide staining based flow cytometry (reference value: 59.68%); format: functional
[10] = tested on: MGC-803; test: Cell cycle arrest in human MGC803 cells assessed as accumulation at S phase at 6.25 uM after 24 hrs by propidium iodide staining based flow cytometry (reference value: 31.17%); format: functional
[11] = tested on: MGC-803; test: Cell cycle arrest in human MGC803 cells assessed as accumulation at G2/M phase at 6.25 uM after 24 hrs by propidium iodide staining based flow cytometry (reference value: 9.15%); format: functional
[12] = tested on: MGC-803; test: Cell cycle arrest in human MGC803 cells assessed as accumulation at G0/G1 phase at 12.5 uM after 24 hrs by propidium iodide staining based flow cytometry (reference value: 59.68%); format: functional
[13] = tested on: MGC-803; test: Cell cycle arrest in human MGC803 cells assessed as accumulation at S phase at 12.5 uM after 24 hrs by propidium iodide staining based flow cytometry (reference value: 31.17%); format: functional
[14] = tested on: MGC-803; test: Cell cycle arrest in human MGC803 cells assessed as accumulation at G2/M phase at 12.5 uM after 24 hrs by propidium iodide staining based flow cytometry (reference value: 9.15%); format: functional
[15] = tested on: MGC-803; test: Cell cycle arrest in human MGC803 cells assessed as accumulation at G0/G1 phase at 25 uM after 24 hrs by propidium iodide staining based flow cytometry (reference value: 59.68%); format: functional
[16] = tested on: MGC-803; test: Cell cycle arrest in human MGC803 cells assessed as accumulation at S phase at 25 uM after 24 hrs by propidium iodide staining based flow cytometry (reference value: 31.17%); format: functional
[17] = tested on: MGC-803; test: Cell cycle arrest in human MGC803 cells assessed as accumulation at G2/M phase at 25 uM after 24 hrs by propidium iodide staining based flow cytometry (reference value: 9.15%); format: functional
[18] = tested on: MGC-803; test: Induction of apoptosis in human MGC803 cells assessed as early apoptotic cells at 6.25 uM after 24 hrs by Annexin V-FITC/propidium iodide staining based flow cytometry (reference value: 0.56%); format: functional
[19] = tested on: MGC-803; test: Induction of apoptosis in human MGC803 cells assessed as late apoptotic cells at 6.25 uM after 24 hrs by Annexin V-FITC/propidium iodide staining based flow cytometry (reference value: 0.12%); format: functional
[20] = tested on: MGC-803; test: Induction of apoptosis in human MGC803 cells assessed as necrotic cells at 6.25 uM after 24 hrs by Annexin V-FITC/propidium iodide staining based flow cytometry (reference value: 0.92%); format: functional
[21] = tested on: MGC-803; test: Induction of apoptosis in human MGC803 cells assessed as early apoptotic cells at 12.5 uM after 24 hrs by Annexin V-FITC/propidium iodide staining based flow cytometry (reference value: 0.56%); format: functional
[22] = tested on: MGC-803; test: Induction of apoptosis in human MGC803 cells assessed as late apoptotic cells at 12.5 uM after 24 hrs by Annexin V-FITC/propidium iodide staining based flow cytometry (reference value: 0.12%); format: functional
[23] = tested on: MGC-803; test: Induction of apoptosis in human MGC803 cells assessed as necrotic cells at 12.5 uM after 24 hrs by Annexin V-FITC/propidium iodide staining based flow cytometry (reference value: 0.92%); format: functional
[24] = tested on: MGC-803; test: Induction of apoptosis in human MGC803 cells assessed as early apoptotic cells at 25 uM after 24 hrs by Annexin V-FITC/propidium iodide staining based flow cytometry (reference value: 0.56%); format: functional
[25] = tested on: MGC-803; test: Induction of apoptosis in human MGC803 cells assessed as late apoptotic cells at 25 uM after 24 hrs by Annexin V-FITC/propidium iodide staining based flow cytometry (reference value: 0.12%); format: functional
[26] = tested on: MGC-803; test: Induction of apoptosis in human MGC803 cells assessed as necrotic cells at 25 uM after 24 hrs by Annexin V-FITC/propidium iodide staining based flow cytometry (reference value: 0.92%); format: functional
[27] = tested on: MGC-803; test: Induction of necrosis in human MGC803 cells at 6.25 uM after 48 hrs by Hoechst 33342/propidium iodide staining based flow cytometry (reference value: 3.73%); format: functional
[28] = tested on: MGC-803; test: Induction of necrosis in human MGC803 cells at 12.5 uM after 48 hrs by Hoechst 33342/propidium iodide staining based flow cytometry (reference value: 3.73%); format: functional
[29] = tested on: MGC-803; test: Induction of necrosis in human MGC803 cells at 25 uM after 48 hrs by Hoechst 33342/propidium iodide staining based flow cytometry (reference value: 3.73%); format: functional

## COC(=O)[C@@]12Oc3cc(C)c(-c4ccc5c(c4O)C(=O)C4=C(O)C[C@H](C)[C@@H](O)[C@]4(C(=O)OC)O5)c(O)c3C(=O)C1=C(O)CC[C@H]2O (stereo in doubt; 1)
[1]
  IC50: 13.4 µM
[2]
  IC50: 20.9 µM
[3]
  IC50: 17.8 µM
[4]
  IC50: 9.8 µM
[5]
  IC50: 4.6 µM
[6]
  IC50: > 50 µM
[7]
  IC50: 9.6 µM
[8]
  IC50: 16.2 µM
[9]
  Activity: 33.65%
[10]
  Activity: 31.02%
[11]
  Activity: 35.33%
[12]
  Activity: 25.7%
[13]
  Activity: 36.98%
[14]
  Activity: 37.32%
[15]
  Activity: 29.67%
[16]
  Activity: 22.9%
[17]
  Activity: 47.43%
[18]
  Activity: 0.26%
[19]
  Activity: 0.17%
[20]
  Activity: 1.88%
[21]
  Activity: 0.42%
[22]
  Activity: 0.56%
[23]
  Activity: 1.46%
[24]
  Activity: 0.26%
[25]
  Activity: 0.59%
[26]
  Activity: 4.06%
[27]
  Activity: 6.97%
[28]
  Activity: 19.29%
[29]
  Activity: 31.33%
